We go through 1 compound from US8541410B2, “Sulfur substituted sulfonylaminocarboxylic acid N-arylamides, their preparation, their use and pharmaceutical preparations comprising them” (Sanofi-aventis Deutschland GmbH, priority 1998, dated 2013).

SMILES strings stand for the structures. pIC50: −log10 of the molar value. Where only a bound is given, the exact number is not on record here.

Assay [1] deals with T1, soluble guanylate cyclase (sGC) (Bos taurus, UniProt P16068).
T1 construct: The sGC which was employed had been isolated from bovine lung; from tissue; host or cells: bovine lung
T1 sequence (P16068 1-619): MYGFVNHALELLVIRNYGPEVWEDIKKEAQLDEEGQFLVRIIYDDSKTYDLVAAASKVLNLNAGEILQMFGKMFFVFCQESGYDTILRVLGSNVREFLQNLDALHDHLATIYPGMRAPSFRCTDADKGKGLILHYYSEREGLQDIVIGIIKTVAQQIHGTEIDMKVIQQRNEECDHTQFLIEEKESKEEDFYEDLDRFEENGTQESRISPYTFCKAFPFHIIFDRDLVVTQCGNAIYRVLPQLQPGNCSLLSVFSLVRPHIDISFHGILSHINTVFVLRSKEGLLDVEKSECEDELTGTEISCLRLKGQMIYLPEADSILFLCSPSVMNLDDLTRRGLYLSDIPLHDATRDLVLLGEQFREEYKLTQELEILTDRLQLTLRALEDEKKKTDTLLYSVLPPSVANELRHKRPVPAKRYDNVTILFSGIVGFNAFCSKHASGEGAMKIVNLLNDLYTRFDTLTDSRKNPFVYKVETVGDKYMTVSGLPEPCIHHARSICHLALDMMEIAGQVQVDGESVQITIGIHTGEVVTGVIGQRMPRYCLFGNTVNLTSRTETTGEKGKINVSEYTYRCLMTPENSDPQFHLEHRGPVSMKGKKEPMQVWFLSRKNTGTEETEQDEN
T1 sequence (P19687 1-691 partner): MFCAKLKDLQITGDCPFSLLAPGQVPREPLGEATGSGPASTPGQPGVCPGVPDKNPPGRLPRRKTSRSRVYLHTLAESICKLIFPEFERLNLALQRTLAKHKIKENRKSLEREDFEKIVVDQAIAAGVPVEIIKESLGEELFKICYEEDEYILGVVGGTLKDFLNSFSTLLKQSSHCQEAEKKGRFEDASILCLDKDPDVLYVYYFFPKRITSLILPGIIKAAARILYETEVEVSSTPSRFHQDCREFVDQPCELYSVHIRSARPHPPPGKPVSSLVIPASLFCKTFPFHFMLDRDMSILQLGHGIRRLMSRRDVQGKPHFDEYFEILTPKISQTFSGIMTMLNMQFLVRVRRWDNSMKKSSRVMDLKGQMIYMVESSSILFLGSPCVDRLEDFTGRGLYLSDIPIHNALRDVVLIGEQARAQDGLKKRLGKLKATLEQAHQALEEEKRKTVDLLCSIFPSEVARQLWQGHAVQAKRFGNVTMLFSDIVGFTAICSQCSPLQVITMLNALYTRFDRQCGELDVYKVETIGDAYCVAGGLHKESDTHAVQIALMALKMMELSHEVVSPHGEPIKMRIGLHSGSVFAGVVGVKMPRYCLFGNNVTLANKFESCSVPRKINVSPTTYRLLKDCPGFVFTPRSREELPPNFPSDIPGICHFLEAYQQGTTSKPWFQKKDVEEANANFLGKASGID
Nature of the assay: Activation of the soluble guanylate cyclase (cGMP enzyme immunoassay). The format is biochemical, bovine. To be noted: concentration c 50 μM; n-fold stimulation of basal enzyme activity.

The test system of another assay is rat aorta rings. Kind of assay: Relaxation of rat aorta (phenylephrine-precontracted rings). The format is cell-based, rat (Wistar-Kyoto). As to conditions: 50% relaxation of phenylephrine (1 μM) contraction. The text has this:
For this test, normotensive male Wistar-Kyoto rats were sacrificed by a blow to the neck. The abdominal cavity and the thorax were opened by a medium stemotomy. The descending aorta was subsequently removed, freed of connective tissue and divided into 8 rings of a length of approximately 4 mm. The tip of a pair of tweezers was introduced into the lumen of 4 of the 8 rings. The endothelium was removed by carefully rolling the rings over the tip of the pair of tweezers. All 8 aorta rings (4 with endothelium and 4 without endothelium) were subsequently suspended in an organ bath (Schuler-Organbad; Hugo Sachs Elektronik) at a constant temperature of 37° C. for the isometric determination of the contractile tone. For 30 minutes, the rings were calibrated at a resting tension of 0.1 g in carbonated (95% O2; 5% CO2) Krebs-Henseleit solution (composition: Na^+ 144.0 mM; K^+ 5.9 mM; Cl^− 126.9 mM; Ca^2+ 1.6 mM; […] 1.2 mM; H2PO4^− 1.2 mM; SO4^2− 1.2 mM; HCO3^− 25.0 mM; D-glucose 11.1 mM) of pH 7.4. Additionally, 1 μmol/l of indomethacin were added to the Krebs-Henseleit solution to inhibit prostaglandin biosynthesis. The rings were subsequently precontracted by addition of phenylephrine (concentration in the solution: 1 μM) and the endothelium-dependent relaxation or the functional loss of the endothelium was tested by addition of acetylcholine (concentration in the solution: 1 μM). After a 30-minute washing period, the rings were then again precontracted by addition of phenylephrine (1 μM), and the relaxing action of the test substances of the formula I was determined by administration of cumulative doses of the latter. The data were evaluated by standard methods. Given is the concentration IC50 by which contraction is inhibited by 50% (50% relaxation).

In a further assay the test system is pig. Nature of the assay: Hemodynamic effect in the pig. To be noted: 10 mg/kg i.d., anesthetized pigs. The format is in vivo, pig (German landrace). As for the experimental part:
Three pigs (German landrace) were anesthetized (Ketamine 20 mg/kg i.m., Methomidate 8 mg/kg i.p., Xylazine 2.5 mg/kg i.m. and Pentobarbital 25 mg/kg i.v. as a bolus plus 0.16 mg/kg per minute). The trachea was intubated and the animals were given artificial respiration with air. Oxygen was added to keep the blood gas parameters in the normal range. To record the blood pressure (BP; BP(s)=systolic blood pressure, BP(d)=diastolic blood pressure) by means of a Statham 23 Db pressure transducer a catheter was inserted into the right A. Femoralis. The left ventricular pressure (LVP), the left ventricular end-diastolic pressure (LVEDP), the contractility (dP/dt) and the heart rate (HR) were determined with a Millar PC 350 catheter “tip manometer” which was inserted into the […] ventricle. After a stabilization period of the hemodynamic parameters of 30 minutes the test substance was administered in the indicated dose into the exposed duodenum by means of a catheter. The determined data were evaluated according to standard methods. Given are the means and the standard deviations (M±SEM) of the starting values and of the maximal changes of the individual parameters (=maximal effects).

`COc1cc(NS(=O)(=O)c2ccc(Cl)cc2)c(C(=O)Nc2ccc(S(=O)(=O)N3C[C@@H](C)O[C@@H](C)C3)cc2)cc1OC` [Example 88, 2-(4-Chloro-phenylsulfonylamino)-N-(4-(cis-2,6-dimethyl-morpholine-4-sulfonyl)-phenyl)-4,5-dimethoxy-benzamide]: the n-fold stimulation in assay [1] is 24.4. The same compound gave a pIC50 in the assay on rat aorta rings (ring with endothelium) of 6.17. Further, in the assay with rat aorta rings (ring without endothelium), the pIC50 is 6.54. In addition, in the assay on pig, the “BP(d) duration of action” value was above 0.125 days, the “BP(s) duration of action” value was above 10800 s, the “HR duration of action” value is reported as above 180 min and the “LVEDP duration of action” value is above 180 min. Moreover, the “dP/dtmax duration of action” value in the assay on pig is reported as above 180 min. The dP/dtmax maximal alteration with pig (contractility, M±SEM) is reported as −633 ± 33 mm Hg/sec. Further, in the assay with pig (diastolic blood pressure, M±SEM), the “BP(d) maximal alteration” value is given as −20 ± 8 mm Hg. Moreover, the HR maximal alteration with pig (heart rate, M±SEM) is listed as −8 ± 2 beats/min. This compound also yielded an LVEDP maximal alteration in the assay with pig (left ventricular end-diastolic pressure, M±SEM) of −1.3 ± 0.3 mm Hg. Besides, in the assay with pig (systolic blood pressure, M±SEM), the “BP(s) maximal alteration” value is reported as −23 ± 6 mm Hg.

By pIC50 is commonly meant the negative decadic logarithm of the IC50, by convention in mol/L. Low values mean a high IC50, high ones a low IC50.
